Assays:
Format in all cases: cell-based
S. aureus = assay: MIC evaluation, broth microdilution method (CLSI); details: Staphylococcus aureus, 37°C
Excerpt: (§1) Tests were then effected on the two bacteria analysed with the agar diffusion test and on two other microorganisms such as Pseudomonas aeruginosa DSM 22644 (PAO1) and Bacillus cereus DSM31 to evaluate the Minimum Inhibitory Concentration (MIC), i.e. the lowest concentration of compound able to inhibit the growth of a microorganism. The method used was the broth microdilution method (CLSI - Clinical and Laboratory Standards Institute). Briefly, the procedure involved the preparation of serial dilutions of the antimicrobial agent (256 to 0.125 mg/1) distributed in a 96-well microtiter plate (microdilution). Each well was then inoculated with the reference microbial strain at the concentration of about […] (0.5 McFarlands). The 96-well microtiter plates were then incubated at 37°C.

E. coli = assay: MIC evaluation, broth microdilution method (CLSI); details: Escherichia coli, 37°C
Excerpt: as §1

[1] = system: Candida humilis UMY12 (UNIMI collection); assay: disc diffusion test on yeast; details: MHA with 2% glucose, 5120 µg/mL, preliminary tests
Description: Some preliminary tests were also effected to evaluate the activity against eukaryotic microorganisms such as yeasts.
The disc diffusion method was applied again, using the yeast Candida humilis UMY12 (UNIMI collection).
2% glucose was added to the MHA medium, and the concentration of the suspension amounted to about 3×10^6 CFU/mL. The concentration of the chemical compounds amounted to 5120 µg/mL for both compounds.

Bacillus cereus DSM31 = assay: MIC evaluation, broth microdilution method (CLSI); details: summary statement in words
Excerpt: as §1

[2] = system: Pseudomonas aeruginosa DSM 22644 (PAO1); assay: MIC evaluation, broth microdilution method (CLSI); details: summary statement in words
Excerpt: as §1

[3] = system: Staphylococcus aureus ATCC25923; assay: disc diffusion antimicrobial susceptibility test (EUCAST); details: MHA, 1000 to 125 µg/mL, 37°C, 16-20 h
Description: The antimicrobial susceptibility tests were effected by the disc diffusion method as indicated by EUCAST (European Committee on Antimicrobial Susceptibility Testing). The plates were prepared with Mueller Hinton Agar (MHA) medium into which microbial suspensions of Escherichia coli ATCC25922 and Staphylococcus aureus ATCC25923 were inoculated at a concentration of about 2×10^8 CFU/mL. Sterile discs were then placed on each plate and subsequently inoculated with successive concentrations of the two chemical compounds analysed (domiphen bromide and para-bromo domiphen bromide), together with a positive control (chloramphenicol) and a negative control (MH broth). The plates were then incubated at 37°C in aerobiosis for 16-20 h. After incubation, any inhibition zone due to the potential antimicrobial activity was measured with a ruler, and the activities of the two molecules were compared. In Figure 8 and Figure 9: • TQ= concentration of compound amounting to 1000 µg/mL • 1:2= concentration of compound amounting to 500 µg/mL • 1:4= concentration of compound amounting to 250 µg/mL • 1:8= concentration of compound amounting to 125 µg/mL • CHL= chloramphenicol (antibiotic) • CNEG= negative control (MHB).

[4] = system: Escherichia coli ATCC25922; assay: as above; details: MHA, 1000 to 125 µg/mL, 37°C, 16-20 h, compared with domiphen bromide
Description: The antimicrobial susceptibility tests were effected by the disc diffusion method as indicated by EUCAST (European Committee on Antimicrobial Susceptibility Testing). The plates were prepared with Mueller Hinton Agar (MHA) medium into which microbial suspensions of Escherichia coli ATCC25922 and Staphylococcus aureus ATCC25923 were inoculated at a concentration of about 2×10^8 CFU/mL. Sterile discs were then placed on each plate and subsequently inoculated with successive concentrations of the two chemical compounds analysed (domiphen bromide and para-bromo domiphen bromide), together with a positive control (chloramphenicol) and a negative control (MH broth). The plates were then incubated at 37°C in aerobiosis for 16-20 h. After incubation, any inhibition zone due to the potential antimicrobial activity was measured with a ruler, and the activities of the two molecules were compared. In Figure 6 and Figure 7: • TQ= concentration of compound amounting to 1000 µg/mL 1:2= concentration of compound amounting to 500 µg/mL • 1:4= concentration of compound amounting to 250 µg/mL • 1:8= concentration of compound amounting to 125 µg/mL • CHL= chloramphenicol (antibiotic) • CNEG= negative control (MHB).

Row | SMILES | MIC (S. aureus) [µg/mL] | MIC (E. coli) [µg/mL] | antimicrobial activity against yeast [1] | activity compared with domiphen against Bacillus cereus (Bacillus cereus DSM31) | activity compared with domiphen against Pseudomonas aeruginosa [2] | antimicrobial activity (inhibition zone) towards S. aureus [3] | antimicrobial activity (inhibition zone) towards E. coli [4]
1 | CCCCCCCCCCCC[N+](C)(C)CCOc1ccccc1 [domiphen bromide, Domiphen bromide, reference compound] | 1 | 8 | almost the same antimicrobial activity |  |  |  | 
2 | CCCCCCCCCCCC[N+](C)(C)CCOc1ccc(Br)cc1 [compound of formula (Ia), (dodecyldimethyl-2-p-bromophenoxyethyl)ammonium bromide] | 1 | 8 | almost the same antimicrobial activity | more active than domiphen | more active than domiphen | exhibits antimicrobial activity | comparable with that of domiphen bromide

From patent EP3681856B1, “COMPOUNDS HAVING PRESERVATIVE, ANTIMICROBIAL AND ANTISEPTIC ACTIVITY” (Universita' degli Studi di Milano, priority 2017, dated 2019)
